Source: PubChem BioAssay AID1919009 (Molecular Pharmacology Branch, DTP, NCI, 2023)
pIC50: −log10 of the molar value.

Tested on: K24384-001-R-PDC complex spheroid growth
Test: Anticancer human tumor K24384-001-R-PDC patient-derived pancreatic adenocarcinoma cell line growth inhibition [AhR]
Conditions: for pIC50: curve of first compound; for viability, T/C: stronger effect = lower value
Excerpt: Multicellular complex tumor spheroid response to aryl hydrocarbon receptor antagonists in combination with a variety of drugs and investigational agents in selected tumor cell lines
The current study was undertaken to assess response to aryl hydrocarbon receptor antagonists in combination with standard-of-care drugs and investigational agents in solid tumor complex spheroid models. Complex spheroids include a stromal component modeled by human endothelial cells (HUVEC) and fibroblasts modeled by human mesenchymal stem cells (MSCs). The concentration ranges selected for each drug and investigational agent were based upon clinically achievable concentrations if the clinical Cmax of the agent was known.
Compounds. The drugs and investigational agents: BAY 2416964 (NSC825713), GNF351 (NSC835774), CH-223191 (NSC835775), CPI-455 (NSC825282), aza-TdCyd (NSC777586), decitabine (NSC127716), belinostat (NSC758774), entinostat (NSC756642), pevonedistat (NSC761192), tazemetostat (NSC777109), talazoparib (NSC765396), olaparib (NSC753686), selinexor (NSC780203), nedisertib (M3814, NSC802822), bortezomib (NSC756655), venetoclax (NSC766270), doxorubicin (NSC123127), elimusertib (BAY189344, NSC800525), ceralasertib (AZD6738, NSC777638), TAK-243 (NSC785004), alisertib (NSC759677), etoposide (NSC141540), topotecan (NSC609699), eribulin (NSC707389), gemcitabine (NSC613327), carboplatin (NSC241240), cisplatin (NSC119875), and SN-38 (NSC673596) were obtained from the National Cancer Institute (NCI) Developmental Therapeutics Program Chemical Repository (32). The FDA-approved anticancer drug set is available from the Developmental Therapeutics Program at https://dtp.cancer.gov/organization/dscb/obtaining/available plates.htm. […] The stock solutions were prepared in dimethyl sulfoxide (DMSO, Sigma-Aldrich, St. Louis, MO, cat. D2650), except for the platinum compounds which were prepared in saline (Quality Biological, Gaithersburg, MD, cat. 114-055-101), at 800-fold the tested concentration and stored at -70 degrees C prior to their use. All drugs and investigational agents were tested over a range starting from a high concentration at or near the clinical Cmax and decreasing in half-log increments. If the clinical Cmax for an agent had not been determined, the highest concentration tested was 10 microM (Table 1).
Cell Culture. All cells were maintained in an incubator at 37 degrees C and 5% CO2 with 95% humidity. The PDC lines were cultured according to standard operating procedures established by the NCI PDMR (https://pdmr.cancer.gov). Briefly, all PDCs were thawed and cultured in Matrigel-coated flasks prepared with a working solution of 1X Ham's F-12 nutrient mix, without supplementation (Invitrogen, Waltham, MA, cat. 11765054), 100 U/mL penicillin-streptomycin (Invitrogen, cat. 15140122), and 2.5% Matrigel (Corning Inc., Corning, NY, cat. 354248) for the first three passages. All PDCs were cultured in complete DMEM/F-12 media containing advanced DMEM/F-12 (Invitrogen, cat. 12634028), 4.9% defined fetal bovine serum, heat inactivated (HyClone Laboratories Inc., Logan, UT, cat. SH30070.03HI), 389 ng/mL hydrocortisone (Sigma-Aldrich, cat. H4001), 9.7 ng/mL human EGF recombinant protein (Invitrogen, cat. PHG0313), 23.4 microg/mL adenine (Sigma-Aldrich, cat. A2786), 97.3 U/mL penicillin-streptomycin (Invitrogen, cat. 15140122), 1.9 mM L-glutamine (Invitrogen, cat. 25030081), and 9.7 microM Y-27632 dihydrochloride (Tocris Bioscience, Bristol, United Kingdom, cat. 1254). The PDCs were cultured in complete DMEM/F12 media without 10 microM Y-27632 dihydrochloride for at least two passages prior to the screen. The established cell lines NCI-H1341 and […] were cultured in DMEM/F-12, HEPES (Invitrogen, cat. 11330032), 5% defined fetal bovine serum (HyClone Laboratories Inc., cat. SH30070.03), ITS premix universal culture supplement [insulin (5 microg/mL), transferrin (5 microg/mL), and selenious acid (5 ng/mL)] […]
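Throughout, for viability, T/C: percent of DMSO vehicle-treated spheroid viability set as 100%.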

With `CC[C@@]1(O)C(=O)OCc2c1cc1n(c2=O)Cc2cc3c(CN(C)C)c(O)ccc3nc2-1` + Cc1ccccc1N=Nc1ccc(NC(=O)c2ccnn2C)c(C)c1 the pIC50 (second compound 0.1 µM) was 7.55, the pIC50 (second compound 0.316 µM) was 7.61 and the pIC50 (second compound 1 µM) was 7.55. For the same compound, the pIC50 (second compound 3.16 µM) was 7.71, the pIC50 (second compound 10 µM) was 7.51 and the viability, T/C (second compound 0.1 µM, first compound 0.000316 µM) was 93.4%. The viability, T/C (second compound 0.1 µM, first compound 0.001 µM) was 96.2%, the viability, T/C (second compound 0.1 µM, first compound 0.00316 µM) was 95.4% and the viability, T/C (second compound 0.1 µM, first compound 0.01 µM) was 72.2%. The viability, T/C (second compound 0.1 µM, first compound 0.0316 µM) was 48.5%, the viability, T/C (second compound 0.1 µM, first compound 0.1 µM) was 44.9% and the viability, T/C (second compound 0.316 µM, first compound 0.000316 µM) was 97.3%. It also gave a viability, T/C (second compound 0.316 µM, first compound 0.001 µM) of 90.7%, a viability, T/C (second compound 0.316 µM, first compound 0.00316 µM) of 98.6% and a viability, T/C (second compound 0.316 µM, first compound 0.01 µM) of 70.5%. For the same compound, the viability, T/C (second compound 0.316 µM, first compound 0.0316 µM) was 46.9%, the viability, T/C (second compound 0.316 µM, first compound 0.1 µM) was 39.6% and the viability, T/C (second compound 1 µM, first compound 0.000316 µM) was 101%. It also gave a viability, T/C (second compound 1 µM, first compound 0.001 µM) of 94.1%, a viability, T/C (second compound 1 µM, first compound 0.00316 µM) of 94.7% and a viability, T/C (second compound 1 µM, first compound 0.01 µM) of 67.8%. For the same compound, the viability, T/C (second compound 1 µM, first compound 0.0316 µM) was 50.2%, the viability, T/C (second compound 1 µM, first compound 0.1 µM) was 38.4% and the viability, T/C (second compound 3.16 µM, first compound 0.000316 µM) was 87.3%. It also gave a viability, T/C (second compound 3.16 µM, first compound 0.001 µM) of 99.8%, a viability, T/C (second compound 3.16 µM, first compound 0.00316 µM) of 92.5% and a viability, T/C (second compound 3.16 µM, first compound 0.01 µM) of 65.8%. It also gave a viability, T/C (second compound 3.16 µM, first compound 0.0316 µM) of 38.3%, a viability, T/C (second compound 3.16 µM, first compound 0.1 µM) of 39.1% and a viability, T/C (second compound 10 µM, first compound 0.000316 µM) of 111%. The viability, T/C (second compound 10 µM, first compound 0.001 µM) was 101%, the viability, T/C (second compound 10 µM, first compound 0.00316 µM) was 109% and the viability, T/C (second compound 10 µM, first compound 0.01 µM) was 68.7%. For the same compound, the viability, T/C (second compound 10 µM, first compound 0.0316 µM) was 51.5% and the viability, T/C (second compound 10 µM, first compound 0.1 µM) was 47.4%.
Work on `CC(C)CC(NC(=O)C(Cc1ccccc1)NC(=O)c1cnccn1)B(O)O` (stereo not given) + CC(CO)NC(=O)c1cc(-c2ccc(Cl)cc2)nn(-c2cnn(C)c2)c1=O yielded a pIC50 (second compound 0.1 µM) of 8.18, a pIC50 (second compound 0.316 µM) of 8.15 and a pIC50 (second compound 1 µM) of 8.18. For the same compound, the pIC50 (second compound 3.16 µM) was 8.25, the pIC50 (second compound 10 µM) was 8.22 and the viability, T/C (second compound 0.1 µM, first compound 0.000949 µM) was 118%. It also gave a viability, T/C (second compound 0.1 µM, first compound 0.003 µM) of 110%, a viability, T/C (second compound 0.1 µM, first compound 0.00949 µM) of 22% and a viability, T/C (second compound 0.1 µM, first compound 0.03 µM) of 0.35%. For the same compound, the viability, T/C (second compound 0.1 µM, first compound 0.0949 µM) was 0.73%, the viability, T/C (second compound 0.1 µM, first compound 0.3 µM) was 0.34% and the viability, T/C (second compound 0.316 µM, first compound 0.000949 µM) was 133%. The viability, T/C (second compound 0.316 µM, first compound 0.003 µM) was 125%, the viability, T/C (second compound 0.316 µM, first compound 0.00949 µM) was 25.6% and the viability, T/C (second compound 0.316 µM, first compound 0.03 µM) was 0.68%. The viability, T/C (second compound 0.316 µM, first compound 0.0949 µM) was 0.25%, the viability, T/C (second compound 0.316 µM, first compound 0.3 µM) was 0.3% and the viability, T/C (second compound 1 µM, first compound 0.000949 µM) was 108%. For the same compound, the viability, T/C (second compound 1 µM, first compound 0.003 µM) was 108%, the viability, T/C (second compound 1 µM, first compound 0.00949 µM) was 22.2% and the viability, T/C (second compound 1 µM, first compound 0.03 µM) was 0.35%. For the same compound, the viability, T/C (second compound 1 µM, first compound 0.0949 µM) was 0.3%, the viability, T/C (second compound 1 µM, first compound 0.3 µM) was 0.35% and the viability, T/C (second compound 3.16 µM, first compound 0.000949 µM) was 83.6%. The viability, T/C (second compound 3.16 µM, first compound 0.003 µM) was 99.2%, the viability, T/C (second compound 3.16 µM, first compound 0.00949 µM) was 14.6% and the viability, T/C (second compound 3.16 µM, first compound 0.03 µM) was 0.34%. The viability, T/C (second compound 3.16 µM, first compound 0.0949 µM) was 0.32%, the viability, T/C (second compound 3.16 µM, first compound 0.3 µM) was 0.31% and the viability, T/C (second compound 10 µM, first compound 0.000949 µM) was 107%. The viability, T/C (second compound 10 µM, first compound 0.003 µM) was 110%, the viability, T/C (second compound 10 µM, first compound 0.00949 µM) was 12% and the viability, T/C (second compound 10 µM, first compound 0.03 µM) was 0.84%. For the same compound, the viability, T/C (second compound 10 µM, first compound 0.0949 µM) was 0.35% and the viability, T/C (second compound 10 µM, first compound 0.3 µM) was 0.9%.
